Measured values: patent US20250129101A1, “Compound, Pharmaceutical Composition Comprising the Same and Method for Treating Cancer Using the Same” (NATIONAL TSING HUA UNIVERSITY, priority 2023, published 2025)
Read-outs that look alike come from different tables or passages of the source.

What was measured:
MDA-MB-231 cells = assay: Cell validation: cytotoxicity in MDA-MB-231 cells (CellTiter-Glo); format: cell-based; settings: for Cell validation (IC50) / IC50: cytotoxicity in MDA-MB-231 cells; for IC50: Homo sapiens
Outline: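 MDA-MB-231 cells were seeded at 2000 cells/well and exposed to compounds for the specified number of days. Medium was then replaced with a 1:1 CellTiter-Glo reagent/serum-supplemented DMEM mix for 10 min, and viability was read as luminescence, proportional to living cell number.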

KIF2C = target: T1, KIF2C (Homo sapiens, UniProt Q99661); assay: In vitro validation: KIF2C kinesin activity, malachite green-based phosphate colorimetric assay; format: biochemical; settings: concentration that inhibits 50% of KIF2C activity
T1 construct: KIF2C (216-598 a.a.); 6xHis (C); made in house; host or cells: E. coli BL21 (DE3), pET-28a
Outline: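 KIF2C sN+M construct (aa 216-598, C-terminal 6×His, E. coli-expressed) ATPase activity with microtubules from porcine brain tubulin or HEK293 (293Fs) cells in BRB80 (80 mM PIPES pH 6.8, 1 mM GTP, 10% DMSO), 37° C for 2 hr. Released phosphate detected by malachite green reagent, 10 min, A650.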

4T1 R4 cells = assay: Cell viability assay, 4T1 R4 cells; format: cell-based, mouse; settings: for CI (combination index), MTA with 7S9: 2 μM 7S9, Chou and Talalay method; for IC50: 72 hr
Experimental: (§1) MCF-7, MDA-MB-231, MDA-MB-468, Hs578T, 4T1, and HeLa cell lines stably expressing H2B-mCherry and eGFP-tubulin (kindly provided by Dr. Anthony A. Hyman, Max-Planck-Institute for Molecular Cell Biology and Genetics, Dresden, Germany) were cultured in high-glucose Dulbecco's Modified Eagle Medium (DMEM). SK-BR-3 cells were cultured in McCoy's Modified 5a Medium. Hs578T cells were cultured in high-glucose DMEM supplemented with an additional 0.01 mg/mL bovine insulin. […] All mentioned media were supplemented with 10% fetal bovine serum (Gibco) and 1% Penicillin/Streptomycin (Corning), and cells were incubated at 37° C. in a humidified atmosphere containing 5% CO2. HEK293 cells were cultured in HE300 medium (GMEP incorporated, Japan) and maintained in suspension culture with 125 rpm and 8% CO2.
(§2) The cancer cells were cultured in a 96-well plate at a confluence of 1000-2000 cells/well with indicated drugs for specific days. When the time was up, the culture medium in the plate was aspirated and replaced with a prepared CellTiter-Glo reagent/DMEM mixture (1:1 mix of CellTiter-Glo reagent and serum-supplemented DMEM). After incubation for 10 min, the luminescence (proportional to the number of living cells) was measured with an ELISA plate reader to determine the cell viability.

4T1 R8 cells = assay: Cell viability assay, 4T1 R8 cells; format: cell-based, mouse; settings: for CI (combination index), MTA with 7S9: 2 μM 7S9, Chou and Talalay method; for IC50: 72 hr
Experimental: as §1, §2

[1] = Mus musculus, drug alone, read-out: IC50 (nM), Single
[2] = MTA with 2 μM 7S9, read-out: IC50 (nM), Combination

T1 sequence (Q99661 216-598): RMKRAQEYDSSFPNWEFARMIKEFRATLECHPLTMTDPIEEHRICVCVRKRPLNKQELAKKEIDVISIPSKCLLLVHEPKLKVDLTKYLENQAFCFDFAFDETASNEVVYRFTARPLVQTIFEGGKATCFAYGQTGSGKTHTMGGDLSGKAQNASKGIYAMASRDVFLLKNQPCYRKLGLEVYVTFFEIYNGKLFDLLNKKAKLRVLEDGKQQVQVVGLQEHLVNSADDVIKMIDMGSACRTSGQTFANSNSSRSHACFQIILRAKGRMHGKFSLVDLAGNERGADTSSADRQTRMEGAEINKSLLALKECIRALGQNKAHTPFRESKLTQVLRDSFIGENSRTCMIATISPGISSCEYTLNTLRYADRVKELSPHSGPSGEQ

| Compound | EC50 (KIF2C) [µM] | IC50 (MDA-MB-231 cells) [µM] | other results |
| --- | --- | --- | --- |
| CCOC(=O)C1=C(C)N=c2s/c(=C\c3ccc(OCC(=O)N4CCN(C)CC4)cc3)c(=O)n2C1c1ccc(Cl)cc1 (centres unmarked) [49S0 (94)] | 50 to 100 |  | Cell validation (IC50) (MDA-MB-231 cells): + + |
| CCOC(=O)C1=C(C)N=c2s/c(=C\c3ccc(OCC(=O)N4CCC(N5CCN(C)CC5)CC4)cc3)c(=O)n2C1c1ccc(Cl)cc1 (centres unmarked) [50S0 (99)] | < 50 |  | Cell validation (IC50) (MDA-MB-231 cells): + + + + |
| CC1=C(C(=O)OC(C)C)C(c2ccc(N(C)C)cc2)n2c(s/c(=C\c3ccc(OCC(=O)O)cc3)c2=O)=N1 (centres unmarked) [51S0 (55), (Z)-2-(4-((5-(4-(dimethylamino)phenyl)-6-(isopropoxycarbonyl)-7-methyl-3-oxo-5H-thiazolo[3,2-a]pyrimidin-2(3H)-ylidene)methyl)phenoxy)acetic acid] | 50 to 100 | > 50 |  |
| CC1=C(C(=O)OC(C)C)C(c2ccc(-n3ccnc3)cc2)n2c(s/c(=C\c3ccc(OCC(=O)O)cc3)c2=O)=N1 (centres unmarked) [52S0 (45), (Z)-2-(4-((5-(4-(1H-imidazol-1-yl)phenyl)-6-(isopropoxycarbonyl)-7-methyl-3-oxo-5H-thiazolo[3,2-a]pyrimidin-2(3H)-ylidene)methyl)phenoxy)acetic acid] | > 100 | > 50 |  |
| CC1=C(C(=O)OC(C)(C)C)C(c2ccc(Cl)cc2)n2c(s/c(=C\c3ccc(OCC(=O)O)cc3)c2=O)=N1 (centres unmarked) [53S0 (80), (Z)-2-(4-((6-(tert-butoxycarbonyl)-5-(4-chlorophenyl)-7-methyl-3-oxo-5H-thiazolo[3,2-a]pyrimidin-2(3H)-ylidene)methyl)phenoxy)acetic acid] | 50 to 100 | > 50 |  |
| CCOC(=O)C1=C(C)N=c2s/c(=C\c3ccc(OCC(=O)O)cc3)c(=O)n2[C@@H]1c1ccc(Cl)cc1 [54S0 (130)] | 50 to 100 | > 50 |  |
| CCOC(=O)C1=C(C)N=c2s/c(=C\c3ccc(OCC(=O)O)cc3)c(=O)n2[C@H]1c1ccc(Cl)cc1 [55S0 (131)] | > 100 | > 50 |  |
| CC1=C(C(=O)OC(C)C)C(c2ccc(Cl)cc2)n2c(s/c(=C\c3ccc(OCC(=O)NS(=O)(=O)C(F)(F)F)cc3)c2=O)=N1 (centres unmarked) [56S0 (121), isopropyl (Z)-5-(4-chlorophenyl)-7-methyl-3-oxo-2-(4-(2-oxo-2-((trifluoromethyl)sulfonamido)ethoxy)benzylidene)-2,3-dihydro-5H-thiazolo[3,2-a]pyrimidine-6-carboxylate] | > 100 | > 50 |  |
| CCN1CCN(C(=O)COc2ccc(/C=c3\sc4n(c3=O)C(c3ccc(Cl)cc3)C(C(=O)OC(C)C)=C(C)N=4)cc2)CC1 (centres unmarked) [Compound 13S0] | 50 to 100 |  | cytotoxicity on MDA-MB-231 cells (in words) (MDA-MB-231 cells; 72 hr): showed cytotoxicity; Cell validation (IC50) (MDA-MB-231 cells): + + |
| CC1=C(C(=O)OC(C)C)C(c2ccc(Cl)cc2)n2c(s/c(=C\c3ccc(OCC(=O)NC4CCN(C)CC4)cc3)c2=O)=N1 (centres unmarked) [Compound 136] | > 100 | > 50 |  |
| CC1=C(C(=O)O)C(c2ccc(Cl)cc2)n2c(s/c(=C\c3ccc(OCC(=O)N4CCN(C)CC4)cc3)c2=O)=N1 (centres unmarked) [Compound 137] | < 50 | > 50 |  |
| CC1=C(C(=O)OC(C)C)C(c2ccc(Cl)cc2)n2c(s/c(=C\c3ccc(OCC(=O)NCC4CCN(C)CC4)cc3)c2=O)=N1 (centres unmarked) [Compound 138] | 50 to 100 | 20 to 50 |  |
| CC1=C(C(=O)OC(C)C)C(c2ccc(Cl)cc2)n2c(s/c(=C\c3ccc(OCC(=O)N4CCC(N(C)C)CC4)cc3)c2=O)=N1 (centres unmarked) [Compound 139] | 50 to 100 | 20 to 50 |  |
| CNc1ccc(C2C(C(=O)OC(C)C)=C(C)N=c3s/c(=C\c4ccc(OCC(=O)N5CCN(C)CC5)cc4)c(=O)n32)cc1 (centres unmarked) [Compound 140] | 50 to 100 | 20 to 50 |  |
| CC1=C(C(=O)OC(C)C)C(c2ccc(C(F)(F)F)cc2)n2c(s/c(=C\c3ccc(OCC(=O)N4CCN(C)CC4)cc3)c2=O)=N1 (centres unmarked) [Compound 141] | < 50 | 20 to 50 |  |
| CC1=C(C(=O)O)C(c2ccc(N(C)C)cc2)n2c(s/c(=C\c3ccc(OCC(=O)N4CCN(C)CC4)cc3)c2=O)=N1 (centres unmarked) [Compound 142] | 50 to 100 | > 50 |  |
| CCOC(=O)C1=C(C)N=c2s/c(=C\c3ccc(OCC(=O)N4CCN(C)CC4)cc3)c(=O)n2C1c1ccc(N(C)C)cc1 (centres unmarked) [Compound 143] | 50 to 100 | 20 to 50 |  |
| CC1=C(C(=O)OC(C)(C)C)C(c2ccc(N(C)C)cc2)n2c(s/c(=C\c3ccc(OCC(=O)N4CCN(C)CC4)cc3)c2=O)=N1 (centres unmarked) [Compound 144] | 50 to 100 | 20 to 50 |  |
| CCN1CCN(C(=O)COc2ccc(/C=c3\sc4n(c3=O)C(c3ccc(N(C)C)cc3)C(C(=O)O)=C(C)N=4)cc2)CC1 (centres unmarked) [Compound 145] | < 50 | > 50 |  |
| CCOC(=O)C1=C(C)N=c2s/c(=C\c3ccc(OCC(=O)N4CCN(CC)CC4)cc3)c(=O)n2C1c1ccc(N(C)C)cc1 (centres unmarked) [Compound 146] | < 50 | 20 to 50 |  |
| CCN1CCN(C(=O)COc2ccc(/C=c3\sc4n(c3=O)C(c3ccc(N(C)C)cc3)C(C(=O)OC(C)C)=C(C)N=4)cc2)CC1 (centres unmarked) [Compound 147] | < 50 |  | Cell validation (IC50) (MDA-MB-231 cells): + + |
| CCN1CCN(C(=O)COc2ccc(/C=c3\sc4n(c3=O)C(c3ccc(N(C)C)cc3)C(C(=O)OC(C)(C)C)=C(C)N=4)cc2)CC1 (centres unmarked) [Compound 148] | < 50 |  | Cell validation (IC50) (MDA-MB-231 cells): + + |
| CC1=C(C(=O)O)C(c2ccc(N(C)C)cc2)n2c(s/c(=C\c3ccc(OCC(=O)N4CCC(N5CCN(C)CC5)CC4)cc3)c2=O)=N1 (centres unmarked) [Compound 149] | < 50 | > 50 |  |
| CCOC(=O)C1=C(C)N=c2s/c(=C\c3ccc(OCC(=O)N4CCC(N5CCN(C)CC5)CC4)cc3)c(=O)n2C1c1ccc(N(C)C)cc1 (centres unmarked) [Compound 150] | 50 to 100 | 20 to 50 |  |
| CC1=C(C(=O)OC(C)(C)C)C(c2ccc(N(C)C)cc2)n2c(s/c(=C\c3ccc(OCC(=O)N4CCC(N5CCN(C)CC5)CC4)cc3)c2=O)=N1 (centres unmarked) [Compound 152] | 50 to 100 | 20 to 50 |  |
| CC(=O)O[C@@]12CO[C@@H]1C[C@H](O)[C@@]1(C)C(=O)[C@H](O)C3=C(C)[C@@H](OC(=O)[C@H](O)[C@@H](NC(=O)OC(C)(C)C)c4ccccc4)C[C@@](O)([C@@H](OC(=O)c4ccccc4)[C@H]21)C3(C)C [Docetaxel, docetaxel] |  |  | CI (combination index), MTA with 7S9 (4T1 R4 cells): 0.45; IC50 (4T1 R4 cells; [1]): 358 nM; CI (combination index), MTA with 7S9 (4T1 R8 cells): 0.50; IC50 (4T1 R8 cells; [1]): 208 nM |
| C=C1C[C@@H]2CC[C@@]34C[C@H]5O[C@H]6[C@@H](O3)[C@H]3O[C@H](CC[C@@H]3O[C@H]6[C@H]5O4)CC(=O)C[C@@H]3[C@@H](OC)[C@@H](C[C@H](O)CN)O[C@H]3C[C@H]3O[C@@H](CC[C@@H]1O2)C[C@@H](C)C3=C [Eribulin, eribulin] |  |  | Fold change in chemosensitivity (IC50 single / 7S9 combination) (4T1 R4 cells; 2 μM 7S9): 30; CI (combination index), MTA with 7S9 (4T1 R4 cells): 0.48; IC50 (4T1 R4 cells; [2]): 14.5 nM; IC50 (4T1 R4 cells; [1]): 442 nM; Fold change in chemosensitivity (IC50 single / 7S9 combination) (4T1 R8 cells; 2 μM 7S9): 21; CI (combination index), MTA with 7S9 (4T1 R8 cells): 0.54; IC50 (4T1 R8 cells; [2]): 13.6 nM; IC50 (4T1 R8 cells; [1]): 284 nM |
| C/C(=C\c1csc(C)n1)[C@@H]1C[C@@H]2O[C@]2(C)CCC[C@H](C)[C@H](O)[C@@H](C)C(=O)C(C)(C)[C@@H](O)CC(=O)N1 [Ixabepilone, ixabepilone] |  |  | IC50 (4T1 R4 cells; [1]): 358 nM; IC50 (4T1 R8 cells; [1]): 234 nM |
